# Experimental data reported in patent US8038997B2, “Anti-marinobufagenin antibodies and methods for their use” (priority 2005, dated 2011).
# What was measured:
# 3E9 mAb = experiment: Cross-reactivity of the 3E9 mAb (50% displacement of bound MBG); type: binding, mouse; details: amount of MBG for 50% displacement versus amount of cross-reactant
# Text: (§1) The percent cross-reactivity of the 3E9, 4G4 and 4H2 mAbs was defined as the ratio of the amount of MBG required to displace 50% of maximally bound MBG from the particular anti-MBG mAb, versus the amount of the cross-reactant to give the same 50% displacement. The binding specificities of the 3E9 mAb for a panel of steroids are shown in Table I; those for the 4112 and 4G4 mAbs are shown in Table II.
# 4H2 mAb = experiment: Cross-reactivity of the 4H2 mAb (50% displacement of bound MBG); type: binding, mouse; details: amount of MBG for 50% displacement versus amount of cross-reactant
# Text: as §1
# 4G4 mAb = experiment: Cross-reactivity of the 4G4 mAb (50% displacement of bound MBG); type: binding, mouse; details: amount of MBG for 50% displacement versus amount of cross-reactant
# Text: as §1
# [1] = test system: polyclonal antidigoxin rabbit antibody; experiment: DELFIA immunoassay, displacement of digoxin standards; type: binding; details: equimolar concentrations of MBG and its conjugate
# Text: Prior to immunization, the conjugate MBG-glycoside-BSA was compared with MBG for its ability to react with polyclonal antidigoxin rabbit antibody, using a DELFIA immunoassay.
# [2] = Experimental uremic cardiomyopathy: partial nephrectomy, MBG infusion, immunization against MBG-BSA; details: male, Sprague-Dawley, rat, plasma, other: infusion with an osmotic minipump, 10 μg/kg per day
# Experimental: (§2) Male, Sprague-Dawley were use in this study. Rats subjected to sham surgery and no MBG infusion or partial nephrectomy were referred to as Sham (n=18). […] MBG-infused rats were referred to as MBG (n=20). Rats immunized against MBG-BSA conjugate before partial nephrectomy were referred to as PNx-IM (n=18).
# (§3) MBG was isolated from toad (Bufo Marinus) venom. […] MBG was infused for a period of 4 weeks at 10 μg/kg per day with an osmotic minipump (Alzet Model 2004, Durect Corp).
# (§4) Partial nephrectomy (five-sixth nephrectomy) was induced by removal of the right kidney and selective infarction of two-thirds of the left kidney with silk ligatures.
# (§5) Rats were immunized with an MBG-BSA conjugate and subjected to partial nephrectomy. The immunization schedule was 3 weekly injections (250 μg/kg per week SQ) in complete Freund's adjuvant before the partial nephrectomy with a last boost at the time of surgery.
# (§6) BP was measured once a week by the tail-cuff method in conscious, restrained rats with equipment made by IITC, Inc (Amplifier model 229, Monitor model 31, Test chamber Model 306; IITC Life Science). Before sacrifice at 4 weeks, animals had ventricular pressures determined by placement of a 2F Millar Microtip Catheter Transducer (Millar Instruments Inc) into the left ventricle through a carotid insertion. Hemodynamic data were acquired at 500 Hz and stored electronically using a BioPac MP110 acquisition system and AcqKnowledge 4.7.3 software (BIOPAC Systems, Inc). The values of left ventricular end-diastolic pressure (LVEDP), systolic pressure, developed pressure, maximal velocity of rise or fall in pressure (dP/dt) and the time constant for isovolumic relaxation were determined using standard methods. At the end of 4 weeks, 2D and M-mode echocardiographic studies were performed using a Philips Sonos 5500 cardiovascular ultrasound imaging system (Philips Medical Systems) equipped with a 15 MHz linear transducer. Parasternal long-axis and short-axis views were obtained.
# (§7) MBG and ouabain-like compound (OLC) in plasma and urine was determined at 4 weeks after extraction with C-18 columns.
# (§8) At the time of sacrifice, left ventricles were quickly dissected out, frozen in liquid nitrogen, and stored at −80° C. until further analysis. Western blot analysis was performed using SDS-PAGE gels (Ready Gel, BioRad).
# (§9) Total protein carbonyl concentration of both the plasma and left ventricular homogenate was determined by ELISA using the Zentech PC Test kit (Northwest Life Science Specialties). Total plasma malondialdehyde was measured spectrophotometrically using the Bioxytech MDA-586 kit (Oxis Research).
# (§10) To measure sarcoplasmic reticulum calcium ATPase activity, which is predominantly SERCA2a activity in left ventricles of rat cardiac tissue, the method of Simonides and van Hardeveld (Simonides and van Hardeveld, Anal. Biochem. 191:321-331, 1990) was used with minor modifications.
# (§11) Hematocrit was measured from whole blood collected in heparinized capillary tubes and spun on a microhematocrit centrifuge (Fisher Scientific). Plasma creatinine was determined spectrophotometrically with a colorimetric end point assay (Teco Diagnostics). Plasma aldosterone levels were measured by ELISA (Cayman). Plasma parathyroid hormone was assayed using the Rat Intact PTH ELISA kit (Immutopics). All of the analyses were performed on blood collected upon sacrifice at 4 weeks.
# Sprague-Dawley rats = experiment: as above
# Experimental: as §2, §3, §4, §5, §6, §7, §8, §9, §10, §11
# [3] = 4 weeks after MBG infusion or immunization prior to partial nephrectomy
Molecule,Percent cross-immunoreactivity (3E9 mAb) [%],4H2 Percent cross-immunoreactivity (4H2 mAb) [%],4G4 Percent cross-immunoreactivity (4G4 mAb) [%],other results
C[C@H]1O[C@@H](O[C@H]2[C@@H](O)C[C@H](O[C@H]3[C@@H](O)C[C@H](O[C@H]4CC[C@@]5(C)[C@H](CC[C@@H]6[C@@H]5C[C@@H](O)[C@]5(C)[C@@H](C7=CC(=O)OC7)CC[C@]65O)C4)O[C@@H]3C)O[C@@H]2C)C[C@H](O)[C@@H]1O [Digoxin],1.8,0.03,0.003,
C[C@]12C=CC(=O)C=C1CC[C@@H]1[C@@H]2C(=O)C[C@@]2(C)[C@H]1CC[C@]2(O)C(=O)CO [Prednisone],<0.01,,,
C[C@H]1O[C@@H](O[C@H]2[C@@H](O)C[C@H](O[C@H]3[C@@H](O)C[C@H](O[C@H]4CC[C@@]5(C)[C@H](CC[C@@H]6[C@@H]5CC[C@]5(C)[C@@H](C7=CC(=O)OC7)CC[C@]65O)C4)O[C@@H]3C)O[C@@H]2C)C[C@H](O)[C@@H]1O [Digitoxin],0.7,,,
C[C@@H]1O[C@@H](O[C@H]2C[C@@H](O)[C@]3(CO)[C@H]4[C@H](O)C[C@]5(C)[C@@H](C6=CC(=O)OC6)CC[C@]5(O)[C@@H]4CC[C@]3(O)C2)[C@H](O)[C@H](O)[C@H]1O [Ouabain],0.3,0.03,0.004,
C[C@]12CC[C@H](OC(=O)CCCCCCC(=O)N[C@@H](CCCN=C(N)N)C(=O)O)C[C@@]1(O)CC[C@@H]1[C@@H]2CC[C@]2(C)[C@@H](c3ccc(=O)oc3)C[C@H]3O[C@]132 [Marinobufotoxin],4,55,44,
C[C@]12C[C@H](O)[C@H]3[C@@H](CCC4=CC(=O)CC[C@@]43C)[C@@H]1CC[C@@H]2C(=O)CO [Corticosterone],<0.01,,,
C[C@]12C[C@@H](O)[C@H]3[C@@H](CC[C@]4(O)C[C@@H](O)C[C@@H](O)[C@]34CO)[C@@]1(O)CC[C@@H]2C1=CC(=O)OC1 [Ouabagenin],<0.01,,,
CC(=O)[C@H]1CC[C@H]2[C@@H]3CCC4=CC(=O)CC[C@]4(C)[C@H]3CC[C@]12C [Progesterone],0.3,,,
CC(=O)O[C@H]1[C@H]2O[C@]23[C@@H]2CC[C@]4(O)C[C@@H](O)CC[C@]4(C)[C@H]2CC[C@]3(C)[C@H]1c1ccc(=O)oc1 [Cinobufotalin],4,58,43,
C[C@]12CC[C@H](O)C[C@H]1CC[C@@H]1[C@@H]2CC[C@]2(C)[C@@H](c3ccc(=O)oc3)C[C@H]3O[C@]132 [Resibufagenin],,0.2,0.6,
Telocinobufotoxin,7,,,
"C[C@]12CC[C@H](O)C[C@@]1(O)CC[C@@H]1[C@@H]2CC[C@]2(C)[C@@H](c3ccc(=O)oc3)CC3O[C@@]312 (stereo partly drawn) [MBG, 3β,5β-dihydroxy-14,15-epoxy bufadienolide]",100,100,100,"displacement of digoxin standards [1]: exactly similar displacement of digoxin standards; concentration at 4 weeks [2]: 0.546 ± 0.034 nM; Hematocrit (Sprague-Dawley rats; [3]): 44.6 ± 0.9%; Left ventricular carbonylated protein (Sprague-Dawley rats; [3]): 505 ± 22 pmol/mg protein; Plasma [OLC] (Sprague-Dawley rats; [3]): 493 ± 41 pmol/L; Plasma aldosterone (Sprague-Dawley rats; [3]): 322 ± 38 pg/mL; Plasma carbonylated protein (Sprague-Dawley rats; [3]): 378 ± 15 pmol/mg protein; Plasma creatinine (Sprague-Dawley rats; [3]): 0.52 ± 0.07 mg/dL; Plasma parathyroid hormone (Sprague-Dawley rats; [3]): 41 ± 9 pg/mL; Plasma total malondialdehyde (Sprague-Dawley rats; [3]): 474 ± 41 nm; Urinary MBG excretion (UMBGV) (Sprague-Dawley rats; [3]): 49.1 ± 3.5 pmol/24 h; Urinary OLC excretion (UOLCV) (Sprague-Dawley rats; [3]): 10.6 ± 0.9 pmol/24 h; left ventricular hemodynamics (dP/dt, LVEDP, time constant for isovolumic relaxation) (Sprague-Dawley rats; Millar catheter after 4 weeks): only the changes in LVEDP and time constant for isovolumic relaxation achieved statistical significance; heart weight / cardiac size (Sprague-Dawley rats; after 4 weeks): significant increases in heart weight; echocardiographic changes (wall thickness, chamber size, FS) (Sprague-Dawley rats; at 4 weeks, MBG versus sham, immunization versus partial nephrectomy): not associated with significant changes; systolic BP during the 4 weeks of observation (Sprague-Dawley rats; tail-cuff, conscious rats, MBG versus control, immunization versus partial nephrectomy): some increases in BP"
CC(=O)O[C@H]1[C@H]2O[C@]23[C@@H]2CC[C@@H]4C[C@@H](O)CC[C@]4(C)[C@H]2CC[C@]3(C)[C@H]1c1ccc(=O)oc1 [Cinobufagin],1.4,0.11,0.07,
C[C@]12CC[C@H](O)C[C@H]1CC[C@@H]1[C@@H]2CC[C@]2(C)[C@@H](c3ccc(=O)oc3)CC[C@]12O [Bufalin],0.25,0.07,0.08,
CC(=O)S[C@@H]1CC2=CC(=O)CC[C@]2(C)[C@H]2CC[C@@]3(C)[C@@H](CC[C@@]34CCC(=O)O4)[C@H]12 [Spironolactone],0.22,,,
C[C@@H]1O[C@@H](O[C@@H]2C=C3CC[C@@H]4[C@H](CC[C@]5(C)[C@@H](c6ccc(=O)oc6)CC[C@]45O)[C@@]3(C)CC2)[C@H](O)[C@H](O)[C@H]1O [Proscillaridin],3,,,
